Assay results from ChEMBL document CHEMBL4130573, “Antitubercular and Cytotoxic Chlorinated seco-Cyclohexenes from Uvaria alba” (J Nat Prod, 2017).
In brackets after ≈: the same amount, converted by molar mass. Activity calls are given as the source filed them. The calls are words filed in the database; no cut-off is given here.

Columns and labels:
HeLa [1] = experiment: Cytotoxic activity against human HeLa cells by Cell-titer blue assay; type: functional, cell-based
HUVEC = experiment: Antiproliferative activity against HUVEC cells by Cell-titer blue assay; type: functional, cell-based; conditions: Homo sapiens
K562 = experiment: Antiproliferative activity against human K562 cells by Cell-titer blue assay; type: functional, cell-based
[2] = test system: Mycobacterium tuberculosis; experiment: Antitubercular activity against Mycobacterium tuberculosis H37Rv by MABA method; type: functional
HeLa [3] = experiment: Cytostatic activity against human HeLa cells at 1 to 50 uM by Cell-titer blue assay; type: functional, cell-based

O=C(OC/C=C\[C@H](Cl)[C@@](O)(CO)COC(=O)c1ccccc1)c1ccccc1 (relative stereo)
IC50 (HeLa [1]): > 45 µM
IC50 (HUVEC): > 45 µM
IC50 (K562): > 45 µM
MIC [2]: 38 µM (≈ 15.4 µg/mL)

CC(=O)OC/C(=C\[C@@H](Cl)[C@H](O)COC(=O)c1ccccc1)COC(=O)c1ccccc1
MIC [2]: 26 µM (≈ 11.6 µg/mL)
Activity (HeLa [3]): Active

CC(=O)O[C@@H]1C(=O)C=COC=C1COC(=O)c1ccccc1
IC50 (HeLa [1]): 25.5 µM
IC50 (HUVEC): 9.9 µM
IC50 (K562): 7.9 µM
MIC [2]: 25 µM (≈ 7.56 µg/mL)
